According to patent US20250090437A1, “COSMETIC COMPOUNDING AGENT, COSMETIC AND PRODUCTION METHOD THEREOF” (MIYOSHI OIL & FAT CO., LTD., priority 2019, published 2025):

Key:
[1] = Water retention property test 1; assay type: physicochemical; details: 80 wt % aqueous solution; for Pre-test moisture rate: before the test (Karl Fischer); for Post-test moisture rate / Rate of reduction in moisture: unsealed; for Post-test moisture rate / Rate of reduction in moisture / Water retention property test 1 Post-test moisture rate / Water retention property test 1 Rate of reduction in moisture: 24 hours at 40° C. and 25% RH
Method: A moisture rate after 24 hours was again measured (post-test moisture rate: B), followed by using the formula below to calculate a rate of reduction in moisture so as to evaluate the water retention property. • Pre-test moisture rate: A (%) • Post-test moisture rate: B (%)

[2] = Water retention property test 2 (hydrates); assay type: physicochemical; details: hydrate (anhydrides: aqueous solution at mono- to trihydrate concentration); for Pre-test moisture rate: before the test; for Post-test moisture rate / Rate of reduction in moisture: unsealed, 24 hours at 40° C. and 25% RH
Method: (2) Water retention property test 2 The water retention property of the hydrate of each compound was evaluated. Hydrates were used in the cases of the compounds C1 to C38, C40 to C49 and C56 to C59; however, since the compounds C39 and C62 to C64 were anhydrides, there were used aqueous solutions prepared by adding water so that a concentration would be that of monohydrate to trihydrate. The moisture rate of the sample(s) was confirmed using a Karl Fischer moisture meter (pre-test moisture rate: A). Next, 1.0 g of each of these samples was added to a screw tube, and this screw tube, while remaining unsealed, was then left to stand still for 24 hours in a thermo-hygrostat set to 40° C. and 25% RH. A moisture rate after 24 hours was again measured (post-test moisture rate: B), followed by calculating a rate of reduction in moisture in a similar manner as above so as to evaluate the water retention property. Here, a comparative evaluation was performed on each hydrate of the compounds C1 to C38, C40 to C49 and C56 to C59 together with an aqueous solution(s) of the compound C39 having a concentration(s) corresponding to the numbers of these hydration waters.
(monohydrates in compounds C1 to C38, C40 to C49 and C56 to C59 of working examples C62 to C99, C103 to C116 with compound C39 of working example C100, compound C62 of comparative example C4, compound C63 of comparative example C7 and compound C64 of comparative example C10)
(dihydrates in compounds C1 to C38, C40 to C49 and C56 to C59 of working examples C62 to C99, C103 to C116 with compound C39 of working example C101, compound C62 of comparative example C5, compound C63 of comparative example C8 and compound C64 of comparative example C11)
(trihydrates in compounds C1 to C38, C40 to C49 and C56 to C59 of working examples C62 to C99, C103 to C116 with compound C39 of working example C102, compound C62 of comparative example C6, compound C63 of comparative example C9 and compound C64 of comparative example C12)

SMILES	Water retention property test 1 Pre-test moisture rate [1]	Water retention property test 1 Post-test moisture rate [1] [%]	Water retention property test 1 Rate of reduction in moisture [1] [%]	further results
CC(=O)OCC[N+](C)(C)C.O=C1O[C@H]([C@@H](O)CO)C([O-])=C1O [Compound C59]	–	–	–	Pre-test moisture rate [1]: 20.0%; Post-test moisture rate [1]: 19.3%; Rate of reduction in moisture [1]: 3.5%
CCC(C)(CO)CO [Compound C48]	20.0%	19.4	2.9	–
CC(CO)CO [Compound C45]	20.0%	19.5	2.5	–
CCC(O)C(O)C(O)C(O)CO (stereo not drawn) [Compound C56]	–	–	–	Pre-test moisture rate [1]: 20.0%; Post-test moisture rate [1]: 19.7%; Rate of reduction in moisture [1]: 1.7%
NC(CO)(CO)CO.O=C(O)CC(O)(CC(=O)O)C(=O)O [Compound C21]	20.0% 20.0%	19.0	5.1	–
CC(O)C(=O)O.NCCO (stereo not drawn) [Compound C1]	20.0%	19.3	3.5	–
CC(O)C(=O)O.NCCCCCC(=O)O [Compound C61]	–	–	–	Pre-test moisture rate [1]: 20.0%; Post-test moisture rate [1]: 18.1%; Rate of reduction in moisture [1]: 9.9%
CC(O)C(=O)[O-].OCC[N+](CCO)(CCO)CCO [Compound C26]	20.0%	19.0	5.0	–
C[N+](C)(C)CCO.O=C([O-])C=CC(=O)O [Compound C30]	20.0%	19.0	5.5	–
CC(=O)[O-].C[N+](C)(C)CCO [Compound C27]	20.0%	19.0	5.0	–
CS(=O)(=O)[O-].C[N+](C)(C)CCO [Compound C32]	20.0%	19.6	2.2	–
C[N+](C)(CCO)CC(O)C[N+](C)(C)CCO.[Cl-].[Cl-] [Compound C38]	20.0%	18.1	9.5	–
C[N+](C)(C)CCO.O=C1OC(C(O)CO)C([O-])=C1O (stereo not drawn) [Compound C57]	–	–	–	Pre-test moisture rate [1]: 20.0%; Post-test moisture rate [1]: 19.0%; Rate of reduction in moisture [1]: 5.0%
C[N+](C)(C)CCO.O=C([O-])CCC(=O)O [Compound C31]	20.0%	19.0	5.5	–
C[N+](C)(C)CCO.O=P([O-])(O)O [Compound C33]	20.0%	19.4	3.0	–
CC(O)C(=O)O.NCCCC(=O)O [Compound C60]	–	–	–	Pre-test moisture rate [1]: 20.0%; Post-test moisture rate [1]: 18.1%; Rate of reduction in moisture [1]: 9.9%

SMILES	Water retention property test 1 Pre-test moisture rate [1]	Water retention property test 1 Post-test moisture rate [1] [%]	Water retention property test 1 Rate of reduction in moisture [1] [%]	further results
CC(O)C(=O)O.OCCNCCO [Compound C2]	20.0%	19.0	4.8	–
NCCO.O=C1OC(C(O)CO)C(O)=C1O (stereo not drawn) [Compound C40]	20.0%	19.5	2.3	–
C[N+](C)(C)CCO.O=C([O-])CO [Compound C28]	20.0%	19.4	3.0	–
O=C1OC(C(O)CO)C(O)=C1O.OCCN(CCO)CCO (stereo not drawn) [Compound C42]	20.0%	19.1	4.4	–
CC[N+](C)(C)CCO.CS(=O)(=O)[O-] [Compound C36]	20.0%	19.6	2.0	–
CC(C)(C)CO [Compound C44]	20.0%	19.2	4.7	–
C[N+](C)(CCO)CC(O)CO.[Cl-] (stereo not drawn) [Compound C37]	20.0%	18.3	8.3	–
CC(O)C(=O)[O-].CCC(CO)(CO)[N+](CC(O)CO)(CC(O)CO)CC(O)CO (stereo not drawn) [Compound C25]	20.0%	19.0	5.0	–
O=C1OC(C(O)CO)C(O)=C1O.OCCNCCO (stereo not drawn) [Compound C41]	20.0%	19.2	4.1	–
CC(O)C(=O)O.N (stereo not drawn) [Compound C24]	20.0%	19.0	4.9	–
C[N+](C)(C)CCO.O=[PH2][O-] [Compound C34]	20.0%	19.4	3.0	–
C[N+](C)(C)CC(O)CC(=O)O.O=C1O[C@H]([C@@H](O)CO)C([O-])=C1O [Compound C58]	–	–	–	Pre-test moisture rate [1]: 20.0%; Post-test moisture rate [1]: 19.2%; Rate of reduction in moisture [1]: 4.1%
CS(=O)(=O)O.NC(CO)(CO)CO [Compound C22]	20.0%	19.8	1.2	–
CC(=O)O.NC(CO)CO [Working example C67]	–	–	–	Pre-test moisture rate [2]: 19.3%; Post-test moisture rate [2]: 18.8%; Rate of reduction in moisture [2]: 2.8%
CCC(N)(CO)CO.O=C(O)CC(O)(CC(=O)O)C(=O)O [Working example C77]	–	–	–	Pre-test moisture rate [2]: 10.4%; Post-test moisture rate [2]: 9.9%; Rate of reduction in moisture [2]: 4.9%
